The record followed here is patent publication US12178223B2, “Insect life cycle interruption agent(LCIA) formulations and their manufacture and use” (priority 2020, dated 2024).

Series [1] in a line: Cyromazine residue in eggs (Example 15). As to conditions: female, Lohman, chicken, in vivo. More on the design: species or system Lohman laying hens. From the text:
(§1) Twenty four Lohman laying hens were placed in conventional layer cages (2 birds per cage) and divided into 6 experimental groups of 4 birds per group.
(§2) The hens were fed for three weeks with laying hens feed (17.5% protein, no AGP) supplemented with a Cyromazine product as summarized in Table 12.
After four weeks of feeding according to the experimental groups of example 13, eggs were collected.
For each treatment 16 eggs were collected (4 eggs from each hen). The contents of the 4 eggs (without the shell) of each bird were pooled in one container marked to indicate the treatment. Each container was a sample. A total of 4 tests were performed for each treatment. The containers were packed in a temperature-controlled pack that was sent for Cyromazine analysis to Eurofines laboratory in Germany.
Samples are weighed and one or more samples is spiked with an internal standard.
Acetonitrile is added and the sample is vortexed. Petroleum ether is added and a liquid/liquid extraction is performed in a shaker followed by centrifugation. An aliquot of the acetonitrile phase is removed and reduced in volume to near dryness then resolved by adding water and methanol. The mixture is vortexed then filtered by membrane filter and analyzed—Liquid chromatographic determination with LC-MS/MS. Quantitation is via comparison with samples spiked with an internal standard.

The subject of series [2] is young fly larvae (stage 1). Nature of the series: Insecticidal activity in manure of hens fed Cyromazine products (Example 14). The format is in vivo. As to conditions: Cyromazine in feed 5 PPM. The procedure:
as §1, §2
After three weeks of feeding according to the experimental groups of example 3, manure was collected from each group of hens. The manure was frozen for 48 hours to destroy any insects present and then thawed.
For each experimental group, 5 cups containing 100 g thawed manure were prepared (70-75% moisture). Each cup represents a group replicate.
Thirty young fly larvae (stage 1) were placed in each cup and incubated in an insectarium for 10 days. After ten days the pupae/larvae/flies were counted. Analysis of variance was done using a One Way Anova test and the comparison of means was done with Tukey-Kramer test, significance level-α=0.05.

Several values for one entry are separate records, joined by “and”; a condition that tells them apart may be missing. Identical values can stand only once. Marks after values point to notes of the source that are not given here.

In series [1], `Nc1nc(N)nc(NC2CC2)n1` [NGNEC, Cyromazine] showed a concentration at 4 weeks of 88 ng/g. Moreover, in series [1] (4 weeks), the “Cyromazine in eggs, % of Larvadex 0.5% group” value worked out at 102%. Further, in series [2], the “Dead larvae and pupas %” value was found to be 0%; the Normal pupa % is listed as 0^b %; the “Survival rate = (No of flies + normal pupas)/30*100” value is 0% and 0^b %. Also, the Flies % in series [2] (10 days) is 0^b %.
